Source: PubChem BioAssay AID1963841 (Molecular Pharmacology Branch, DTP, NCI, 2024)

System: 439559-082-T-J2-PDC spheroid viability
Test: Anticancer human tumor 439559-082-T-J2-PDC patient-derived colon adenocarcinoma cell line growth inhibition [POLQ]
Settings: spheroids with HUVEC and MSC; for IC50: curve of first compound; for viability, T/C: stronger effect = lower value
Procedure, shortened: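 Complex spheroid viability model combining PDC tumour cells with endothelial (HUVEC) and MSC stromal cells. Novobiocin, ART-558 or RP6685 were tested singly and in combination with standard and investigational anticancer drugs. Each was titrated in half-log steps from near clinical Cmax, or from 10 microM where Cmax was unknown.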

[1] = second compound 0.0316 µM, first compound 0.0316 µM
[2] = second compound 0.0316 µM, first compound 0.1 µM
[3] = second compound 0.0316 µM, first compound 0.316 µM
[4] = second compound 0.0316 µM, first compound 1 µM
[5] = second compound 0.1 µM, first compound 0.0316 µM
[6] = second compound 0.1 µM, first compound 0.1 µM
[7] = second compound 0.1 µM, first compound 0.316 µM
[8] = second compound 0.1 µM, first compound 1 µM
[9] = second compound 0.316 µM, first compound 0.0316 µM
[10] = second compound 0.316 µM, first compound 0.1 µM
[11] = second compound 0.316 µM, first compound 0.316 µM
[12] = second compound 0.316 µM, first compound 1 µM
[13] = second compound 1 µM, first compound 0.0316 µM
[14] = second compound 1 µM, first compound 0.1 µM
[15] = second compound 1 µM, first compound 0.316 µM
[16] = second compound 1 µM, first compound 1 µM
[17] = second compound 3.16 µM, first compound 0.0316 µM
[18] = second compound 3.16 µM, first compound 0.1 µM
[19] = second compound 3.16 µM, first compound 0.316 µM
[20] = second compound 3.16 µM, first compound 1 µM
[21] = second compound 10 µM, first compound 0.0316 µM
[22] = second compound 10 µM, first compound 0.1 µM
[23] = second compound 10 µM, first compound 0.316 µM
[24] = second compound 10 µM, first compound 1 µM
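Also: spheroids exposed to compounds for seven days before readout.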
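For viability, T/C in this document: 100% = DMSO vehicle control viability.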

`COc1cccc(OCCCN)c1-c1cc(Nc2cnc(C#N)cn2)n[nH]1` + Cc1cccc(N(C)C(=O)C2C(O)CCN2c2nc(C)cc(C(F)(F)F)c2C#N)c1 was tested, and the IC50 (second compound 0.0316 µM) was 274 nM, the IC50 (second compound 0.1 µM) was 319 nM and the IC50 (second compound 0.316 µM) was 299 nM. The IC50 (second compound 1 µM) was 398 nM, the IC50 (second compound 3.16 µM) was 291 nM and the IC50 (second compound 10 µM) was 150 nM. For the same compound, the viability, T/C (second compound 0.0316 µM, first compound 0.00316 µM) was 99.3%, the viability, T/C (second compound 0.0316 µM, first compound 0.01 µM) was 99.7% and the viability, T/C [1] was 71%. The viability, T/C [2] was 77.9%, the viability, T/C [3] was 44.8% and the viability, T/C [4] was 18.5%. It also gave a viability, T/C (second compound 0.1 µM, first compound 0.00316 µM) of 100%, a viability, T/C (second compound 0.1 µM, first compound 0.01 µM) of 74.7% and a viability, T/C [5] of 71.1%. For the same compound, the viability, T/C [6] was 78.1%, the viability, T/C [7] was 49.5% and the viability, T/C [8] was 19.9%. For the same compound, the viability, T/C (second compound 0.316 µM, first compound 0.00316 µM) was 104%, the viability, T/C (second compound 0.316 µM, first compound 0.01 µM) was 83.8% and the viability, T/C [9] was 84.8%. It also gave a viability, T/C [10] of 68.7%, a viability, T/C [11] of 51% and a viability, T/C [12] of 19.8%. The viability, T/C (second compound 1 µM, first compound 0.00316 µM) was 110%, the viability, T/C (second compound 1 µM, first compound 0.01 µM) was 94.2% and the viability, T/C [13] was 82.5%. For the same compound, the viability, T/C [14] was 77.5%, the viability, T/C [15] was 64.2% and the viability, T/C [16] was 20.9%. It also gave a viability, T/C (second compound 3.16 µM, first compound 0.00316 µM) of 87.6%, a viability, T/C (second compound 3.16 µM, first compound 0.01 µM) of 102% and a viability, T/C [17] of 81.7%. It also gave a viability, T/C [18] of 74.9%, a viability, T/C [19] of 48.1% and a viability, T/C [20] of 19.4%. It also gave a viability, T/C (second compound 10 µM, first compound 0.00316 µM) of 101%, a viability, T/C (second compound 10 µM, first compound 0.01 µM) of 86.9% and a viability, T/C [21] of 94.5%. The viability, T/C [22] was 63.2%, the viability, T/C [23] was 25.1% and the viability, T/C [24] was 16.2%.
With `CC1COCCN1c1cc(C2(O)CC3CCC(C2)O3)c2cnn(-c3ccn[nH]3)c2n1` (centres undefined) + Cc1cccc(N(C)C(=O)C2C(O)CCN2c2nc(C)cc(C(F)(F)F)c2C#N)c1 the IC50 (second compound 0.0316 µM) was 3840 nM, the IC50 (second compound 0.1 µM) was 5320 nM and the IC50 (second compound 0.316 µM) was 3180 nM. It also gave an IC50 (second compound 1 µM) of 4980 nM, an IC50 (second compound 3.16 µM) of 2870 nM and an IC50 (second compound 10 µM) of 2930 nM. The viability, T/C [1] was 96.4%, the viability, T/C [2] was 79.1% and the viability, T/C [3] was 71.1%. It also gave a viability, T/C [4] of 60.9%, a viability, T/C (second compound 0.0316 µM, first compound 3.16 µM) of 47.7% and a viability, T/C (second compound 0.0316 µM, first compound 10 µM) of 46.4%. The viability, T/C [5] was 95.6%, the viability, T/C [6] was 86.1% and the viability, T/C [7] was 66%. For the same compound, the viability, T/C [8] was 60.1%, the viability, T/C (second compound 0.1 µM, first compound 3.16 µM) was 49.3% and the viability, T/C (second compound 0.1 µM, first compound 10 µM) was 49%. The viability, T/C [9] was 94.5%, the viability, T/C [10] was 79.4% and the viability, T/C [11] was 70.2%. For the same compound, the viability, T/C [12] was 57%, the viability, T/C (second compound 0.316 µM, first compound 3.16 µM) was 48.4% and the viability, T/C (second compound 0.316 µM, first compound 10 µM) was 46.6%. For the same compound, the viability, T/C [13] was 95.5%, the viability, T/C [14] was 78.4% and the viability, T/C [15] was 69.3%. The viability, T/C [16] was 61%, the viability, T/C (second compound 1 µM, first compound 3.16 µM) was 51.5% and the viability, T/C (second compound 1 µM, first compound 10 µM) was 46.8%. For the same compound, the viability, T/C [17] was 91.3%, the viability, T/C [18] was 80.8% and the viability, T/C [19] was 66.7%. The viability, T/C [20] was 57%, the viability, T/C (second compound 3.16 µM, first compound 3.16 µM) was 48.9% and the viability, T/C (second compound 3.16 µM, first compound 10 µM) was 46.1%. The viability, T/C [21] was 80.9%, the viability, T/C [22] was 73.7% and the viability, T/C [23] was 65.5%. For the same compound, the viability, T/C [24] was 55.6%, the viability, T/C (second compound 10 µM, first compound 3.16 µM) was 51.6% and the viability, T/C (second compound 10 µM, first compound 10 µM) was 41.1%.
